Reference: article PMC2585076, “Development of selective blockers for Ca^2+-activated Cl^- channel using Xenopus laevis oocytes with an improved drug screening strategy” (Molecular Brain, 2008)
Like-named read-outs stand apart in the source and are kept apart here. Each block holds one compound with its values, some of them ahead of it.

Experiments:
[1] = molecular target: T1, Ca^2+-activated Cl^- channel (CaCC) (Xenopus laevis, UniProt B5SVV6); conditions: endogenous CaCCs in Xenopus laevis oocytes, TEVC; read-out: IC50 * (IC50 previously studied); cited from earlier work
T1 sequence (B5SVV6 entry or part of it): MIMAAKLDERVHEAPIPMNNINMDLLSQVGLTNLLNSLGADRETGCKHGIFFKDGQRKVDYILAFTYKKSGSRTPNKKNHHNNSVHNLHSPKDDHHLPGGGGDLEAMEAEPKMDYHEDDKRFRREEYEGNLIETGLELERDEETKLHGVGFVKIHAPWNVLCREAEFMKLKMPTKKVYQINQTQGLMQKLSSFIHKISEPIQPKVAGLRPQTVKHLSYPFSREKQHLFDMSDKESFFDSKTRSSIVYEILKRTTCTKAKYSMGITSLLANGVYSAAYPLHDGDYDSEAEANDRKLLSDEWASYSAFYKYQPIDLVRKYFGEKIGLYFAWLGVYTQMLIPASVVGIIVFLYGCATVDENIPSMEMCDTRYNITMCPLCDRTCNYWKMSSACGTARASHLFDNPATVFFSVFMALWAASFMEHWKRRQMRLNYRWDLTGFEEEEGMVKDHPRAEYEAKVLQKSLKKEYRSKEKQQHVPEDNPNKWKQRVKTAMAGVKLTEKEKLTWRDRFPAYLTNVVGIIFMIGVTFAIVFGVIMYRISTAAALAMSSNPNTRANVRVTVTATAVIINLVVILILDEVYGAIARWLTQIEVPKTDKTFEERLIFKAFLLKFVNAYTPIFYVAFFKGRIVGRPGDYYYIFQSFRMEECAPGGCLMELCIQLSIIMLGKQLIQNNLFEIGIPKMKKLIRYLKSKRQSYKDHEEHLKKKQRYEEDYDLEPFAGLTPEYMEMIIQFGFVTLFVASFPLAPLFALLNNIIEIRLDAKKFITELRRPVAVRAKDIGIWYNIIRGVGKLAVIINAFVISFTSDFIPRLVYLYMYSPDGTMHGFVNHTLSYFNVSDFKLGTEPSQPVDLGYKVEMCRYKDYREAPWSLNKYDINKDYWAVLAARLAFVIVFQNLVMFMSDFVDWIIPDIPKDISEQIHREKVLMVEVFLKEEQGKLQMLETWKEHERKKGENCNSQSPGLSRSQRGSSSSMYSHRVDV

[2] = molecular target: T1, Ca^2+-activated Cl^- channel (CaCC); format: cell-based; conditions: block of Cl^- current induced by 5 mM external Ca^2+, ionomycin then thapsigargin treated oocytes, chelerythrine in intracellular solution, holding potential -60 mV

SMILES: O=C(O)c1ccccc1Nc1ccccc1 [DPC, diphenylamine-2-carboxylate]
IC50 [1]: 111 µM

IC50 [2]: low potency
SMILES: O=C(O)c1ccccc1Nc1ccccc1[N+](=O)[O-] [N-(2-Nitrophenyl)-anthranilic acid]

SMILES: O=C(O)c1ccccc1Nc1ccc(C(F)(F)F)cc1 [N-(4-trifluoromethylphenyl)anthranilic acid]
IC50 ([2]; read-out: IC50): 6 µM
